Source: PubChem BioAssay AID248 (DTP/NCI, 2004)
Values joined by “and” are separate entries in the source; they are usually repeats but may differ in a detail not shown here. Equal entries are not always repeated. Toxic doses and inconclusive results are not listed. Cut-off read from the data, not from the text of the source: active = T/C of 150% or more; inactive = T/C below 125%.

System: L1210 leukemia ip in BDF1 mice, survival T/C
Experiment: NCI In Vivo Anticancer Drug Screen. Data for tumor model L1210 Leukemia (intraperitoneal) in B6D2F1 (BDF1) mice
Conditions: endpoint: mean survival time, higher = longer survival
Procedure, shortened: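 Tumor cells were implanted, animals were treated, and survival was followed. The result divides the treated measurement by the vehicle-control measurement.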

[1] = dose: 100.0 mg/kg/injection, schedule: Q01DX001 (ip), vehicle: saline
[2] = dose: 200.0 mg/kg/injection, schedule: Q01DX001 (ip), vehicle: saline
[3] = dose: 400.0 mg/kg/injection, schedule: Q01DX001 (ip), vehicle: saline
[4] = dose: 50.0 mg/kg/injection, schedule: Q01DX001 (ip), vehicle: saline
[5] = dose: 100.0 mg/kg/injection, schedule: Q01DX001 (ip), vehicle: Klucel (hydroxypropylcellulose) (HPC)
[6] = dose: 200.0 mg/kg/injection, schedule: Q01DX001 (ip), vehicle: Klucel (hydroxypropylcellulose) (HPC)
[7] = dose: 400.0 mg/kg/injection, schedule: Q01DX001 (ip), vehicle: Klucel (hydroxypropylcellulose) (HPC)
[8] = dose: 50.0 mg/kg/injection, schedule: Q01DX009 (ip), vehicle: saline with Tween-80
[9] = dose: 100.0 mg/kg/injection, schedule: Q01DX009 (ip), vehicle: saline with Tween-80
[10] = dose: 200.0 mg/kg/injection, schedule: Q01DX009 (ip), vehicle: saline with Tween-80
[11] = dose: 100.0 mg/kg/injection, schedule: Q04DX003 (ip), vehicle: saline with Tween-80
[12] = dose: 200.0 mg/kg/injection, schedule: Q04DX003 (ip), vehicle: saline with Tween-80
[13] = dose: 400.0 mg/kg/injection, schedule: Q04DX003 (ip), vehicle: saline with Tween-80
[14] = dose: 100.0 mg/kg/injection, schedule: Q01DX009 (ip), vehicle: Klucel (hydroxypropylcellulose) (HPC)
[15] = dose: 100.0 mg/kg/injection, schedule: Q04DX003 (ip), vehicle: Klucel (hydroxypropylcellulose) (HPC)
[16] = dose: 200.0 mg/kg/injection, schedule: Q01DX009 (ip), vehicle: Klucel (hydroxypropylcellulose) (HPC)
[17] = dose: 200.0 mg/kg/injection, schedule: Q04DX003 (ip), vehicle: Klucel (hydroxypropylcellulose) (HPC)
[18] = dose: 400.0 mg/kg/injection, schedule: Q01DX009 (ip), vehicle: Klucel (hydroxypropylcellulose) (HPC)
[19] = dose: 400.0 mg/kg/injection, schedule: Q04DX003 (ip), vehicle: Klucel (hydroxypropylcellulose) (HPC)
[20] = dose: 75.0 mg/kg/injection, schedule: Q01DX001 (ip), vehicle: saline
[21] = dose: 150.0 mg/kg/injection, schedule: Q01DX001 (ip), vehicle: saline
[22] = dose: 300.0 mg/kg/injection, schedule: Q01DX001 (ip), vehicle: saline
[23] = dose: 25.0 mg/kg/injection, schedule: Q04DX003 (ip), vehicle: saline
[24] = dose: 50.0 mg/kg/injection, schedule: Q04DX003 (ip), vehicle: saline

Measured: T/C

O=C(O)c1cccc(S(=O)(=O)O)c1
inactive: [1] 105 % of control | [2] 98 % of control | [3] 102 % of control

Nc1ccccc1S.[Ag]
inactive: [4] 95 % of control | [1] 86 % of control | [2] 91 % of control | [3] 91 % of control

CCS(=O)(=O)C(S(=O)(=O)CC)S(=O)(=O)CC
inactive: [5] 102 % of control | [6] 91 % of control | [7] 96 % of control

Cc1cccc(NC(=O)NCC(=O)N/N=C/c2cccc([N+](=O)[O-])c2)n1
inactive: [8] 93 % of control | [9] 90 % of control | [10] 88 % of control

O=C(O)CC(=O)c1cccc([N+](=O)[O-])c1
inactive: [5] 104 % of control | [6] 97 % of control | [7] 96 % of control

Nc1cc(NCc2ccccc2)nc(=O)[nH]1
inactive: dose: 100.0 mg/kg/injection, schedule: Q01DX001 (ip), vehicle: gum acacia 97 % of control | dose: 200.0 mg/kg/injection, schedule: Q01DX001 (ip), vehicle: gum acacia 95 % of control | dose: 400.0 mg/kg/injection, schedule: Q01DX001 (ip), vehicle: gum acacia 101 % of control

C=CC(=O)Nc1cccc(OC(=O)NC(C)(C)C)c1
inactive: [11] 101 % of control | [12] 92 % of control | [13] 87 % of control

OC1c2ccccc2-c2ccc(Cl)cc21 (configuration not stated)
inactive: dose: 25.0 mg/kg/injection, schedule: Q01DX009 (ip), vehicle: saline with Tween-80 97 % of control | [8] 106 % of control | [9] 100 % of control and 90 % of control

CC(=O)C(/C=N/C(=O)N(C)C)=C(/C)O
inactive: [11] 98 % of control | [12] 104 % of control | [13] 104 % of control

COC(=O)c1ccc2cc(OC)cc([N+](=O)[O-])c2n1
inactive: dose: 50.0 mg/kg/injection, schedule: Q01DX001 (ip), vehicle: carboxymethylcellulose (CMC) 87 % of control | dose: 100.0 mg/kg/injection, schedule: Q01DX001 (ip), vehicle: carboxymethylcellulose (CMC) 93 % of control | dose: 200.0 mg/kg/injection, schedule: Q01DX001 (ip), vehicle: carboxymethylcellulose (CMC) 102 % of control | dose: 400.0 mg/kg/injection, schedule: Q01DX001 (ip), vehicle: carboxymethylcellulose (CMC) 93 % of control

Cc1ccc(S(=O)(=O)N/N=C(\CSc2ccc([N+](=O)[O-])cc2)c2ccccc2)cc1
inactive: [11] 87 % of control | [12] 92 % of control | [13] 88 % of control

Cn1c(=O)c2c(ncn2C)n(C)c1=O (tested in a mixture with another compound)
inactive: [11] 98 % of control | [12] 101 % of control | [13] 114 % of control

COC(=O)C1(C)CCCC2(C)C1CCC13OCC(CC21)C(O)(C(C)C)C3O (configuration not stated)
inactive: [8] 97 % of control | [9] 97 % of control | [10] 90 % of control

COc1ccc(C(C)(C#N)Nc2ccccc2)cc1 (configuration not stated)
inactive: [11] 98 % of control | [12] 96 % of control

COc1ccc(CO)cc1OC
inactive: [14] 101 % of control | [15] 97 % of control | [16] 113 % of control | [17] 94 % of control | [18] 97 % of control | [19] 94 % of control

CC(C)(Br)C(=O)C(C)(C)Br
inactive: [20] 93 % of control | [14] 103 % of control | [21] 96 % of control | [16] 100 % of control | [22] 92 % of control | [18] 91 % of control

C=CCN(C(=O)OCC)P(=O)(OCC)OCC
inactive: dose: 12.5 mg/kg/injection, schedule: Q01DX009 (ip), vehicle: saline 102 % of control | dose: 12.5 mg/kg/injection, schedule: Q04DX003 (ip), vehicle: saline 106 % of control | dose: 25.0 mg/kg/injection, schedule: Q01DX009 (ip), vehicle: saline 112 % of control | [23] 106 % of control | dose: 50.0 mg/kg/injection, schedule: Q01DX009 (ip), vehicle: saline 112 % of control | [24] 105 % of control | dose: 100.0 mg/kg/injection, schedule: Q04DX003 (ip), vehicle: saline 112 % of control | dose: 200.0 mg/kg/injection, schedule: Q01DX009 (ip), vehicle: saline 112 % of control | dose: 200.0 mg/kg/injection, schedule: Q04DX003 (ip), vehicle: saline 98 % of control

COC1CCCCC1SCSC1CCCCC1OC (configuration not stated)
inactive: [9] 90 % of control | dose: 400.0 mg/kg/injection, schedule: Q01DX009 (ip), vehicle: saline with Tween-80 88 % of control

COc1ccc2c(C(=O)N(CCCl)CCCl)cc3cc(OC)c(OC)cc3c2c1
inactive: [23] 116 % of control | [24] 102 % of control

O=C(Nc1ccc(C(=O)Nc2ccc(C3=NCCCN3)cc2)cc1)Nc1ccc(C2=NCCCN2)cc1
inactive: dose: 0.94 mg/kg/injection, schedule: Q01DX Z (ip), vehicle: saline 103 % of control | dose: 1.88 mg/kg/injection, schedule: Q01DX Z (ip), vehicle: saline 117 % of control | dose: 18.8 mg/kg/injection, schedule: Q01DX004 (oral), vehicle: saline 94 % of control | dose: 37.5 mg/kg/injection, schedule: Q01DX009 (oral), vehicle: saline 91 % of control | dose: 75.0 mg/kg/injection, schedule: Q01DX009 (oral), vehicle: saline 93 % of control | dose: 150.0 mg/kg/injection, schedule: Q01DX004 (oral), vehicle: saline 93 % of control

O=[N+]([O-])CC(O)c1ccccc1Cl (configuration not stated)
inactive: [8] 95 % of control | [9] 98 % of control

CCCCCCc1ccc2c(c1)CC(CCCC)C2 (configuration not stated)
inactive: [4] 101 % of control | [1] 104 % of control | [2] 98 % of control | [3] 101 % of control

N=C(N=C(N)N)N(Cc1ccccc1)Cc1ccccc1
inactive: dose: 6.25 mg/kg/injection, schedule: Q01DX009 (ip), vehicle: water 103 % of control | dose: 6.25 mg/kg/injection, schedule: Q04DX003 (ip), vehicle: water 97 % of control | dose: 12.5 mg/kg/injection, schedule: Q01DX001 (ip), vehicle: water 107 % of control | dose: 12.5 mg/kg/injection, schedule: Q01DX009 (ip), vehicle: water 101 % of control | dose: 12.5 mg/kg/injection, schedule: Q04DX003 (ip), vehicle: water 103 % of control | dose: 25.0 mg/kg/injection, schedule: Q01DX001 (ip), vehicle: water 100 % of control | dose: 25.0 mg/kg/injection, schedule: Q01DX009 (ip), vehicle: water 101 % of control | dose: 25.0 mg/kg/injection, schedule: Q04DX003 (ip), vehicle: water 96 % of control

CC(C)(C)c1ccc(S(=O)(=O)Cl)cc1
inactive: dose: 100.0 mg/kg/injection, schedule: Q04DX002 (ip), vehicle: Klucel (hydroxypropylcellulose) (HPC) 97 % of control | dose: 200.0 mg/kg/injection, schedule: Q04DX002 (ip), vehicle: Klucel (hydroxypropylcellulose) (HPC) 104 % of control | dose: 400.0 mg/kg/injection, schedule: Q04DX002 (ip), vehicle: Klucel (hydroxypropylcellulose) (HPC) 90 % of control

Cc1ccc(Nc2cc(=O)[nH]c(N)n2)cc1Cl
inactive: dose: 100.0 mg/kg/injection, schedule: Q01DX Z (ip), vehicle: methylcellulose (MC) 86 % of control | dose: 200.0 mg/kg/injection, schedule: Q01DX Z (ip), vehicle: methylcellulose (MC) 103 % of control

C=C=CCCCC
inactive: [20] 101 % of control | dose: 75.0 mg/kg/injection, schedule: Q04DX003 (ip), vehicle: saline 112 % of control | [21] 111 % of control | dose: 150.0 mg/kg/injection, schedule: Q04DX003 (ip), vehicle: saline 104 % of control | [22] 102 % of control | dose: 300.0 mg/kg/injection, schedule: Q04DX003 (ip), vehicle: saline 101 % of control

CC(C(=O)c1ccc(F)cc1)C(O)(C(F)(F)F)C(F)(F)F (configuration not stated)
inactive: [15] 94 % of control | [17] 95 % of control | [19] 103 % of control
